Here are results for ten compounds from ChEMBL document CHEMBL1201862, “PubChem BioAssay data set” (2004).

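Assay format: 96-well plates, 48-hour exposure. GI50: concentration for 50% inhibition of growth.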 Active and inactive are the calls of the source. Rule as the data show it: active = GI50 up to about 1.1 µM and inactive = higher. Some results are limits rather than exact numbers.

Some test systems named below: DLD-1; XF498; DMS-273; M19-MEL; KM-20L2; SNB-78; RXF 631; HOP-18; DMS-114.
Holding throughout (assay): NCI-60 cell line screen, 48 h

Turning to `O=S(=O)(O)c1ccc(-c2c3nc(c(-c4ccc(S(=O)(=O)O)cc4)c4ccc([nH]4)c(-c4ccc(S(=O)(=O)O)cc4)c4nc(c(-c5ccc(S(=O)(=O)O)cc5)c5ccc2[nH]5)C=C4)C=C3)cc1`, the GI50 is > 100 µM (inactive) in the assay with DLD-1; > 100 µM (inactive) in the assay on XF498; 95.5 µM (inactive) in the assay on DMS-273; > 100 µM (inactive) with M19-MEL; > 100 µM (inactive) in the assay with KM-20L2; 44.6 µM (inactive) in the assay on SNB-78. Also, the values for the GI50 in the assay with RXF 631, in the assay with HOP-18 and with DMS-114 were 80.9 µM (inactive), > 100 µM (inactive) and 40.2 µM (inactive), respectively.

Turning to `C=C(C)C1CC[C@]2(C(=O)O)CCC3(C)[C@H](CCC4[C@@]5(C)CC[C@H](OC6OC(CO)C(O)C6OC6OC(C)C(O)C(O)C6O)[C@@](C)(CO)C5CC[C@]43C)C12` (stereo partly specified), the GI50 in the assay on DLD-1 was 33.9 µM (inactive); in the assay with XF498 it was > 100 µM (inactive); in the assay on DMS-273 it was > 100 µM (inactive); with M19-MEL it was > 100 µM (inactive); in the assay with KM-20L2 it was > 100 µM (inactive); in the assay on SNB-78, > 100 µM (inactive). Besides, the GI50 in the assay on RXF 631 and with DMS-114 was > 100 µM (inactive) each time.

As to `O=C(/C=C/c1ccccc1O)c1cccnc1`, the GI50 in the assay on DLD-1, in the assay with XF498, with DMS-273, in the assay on M19-MEL, with KM-20L2 and in the assay on SNB-78 was > 100 µM (inactive) in each case. Moreover, the GI50 in the assay with RXF 631 and in the assay with HOP-18 was > 100 µM (inactive) in each case.

Take `COc1ccc2c(c1)CC1c3c(cc4c(c3-2)OCO4)CCN1C` (stereo unspecified): the GI50 in the assay on DLD-1 is 41.9 µM (inactive); in the assay with XF498, 27.7 µM (inactive); with DMS-273, 25.7 µM (inactive); in the assay on M19-MEL, 21.4 µM (inactive); in the assay on KM-20L2 it was 30.8 µM (inactive); with SNB-78 it was 40.7 µM (inactive). The GI50 in the assay with RXF 631 is 24.5 µM (inactive); in the assay on HOP-18, 21.4 µM (inactive); in the assay with DMS-114, 24.3 µM (inactive).

Consider `COC(=O)C1C=NNC1C(=O)OC` (stereo unspecified), for which the GI50 in the assay on XF498, in the assay on DMS-273, in the assay with M19-MEL, with KM-20L2, with SNB-78 and in the assay on RXF 631 was > 100 µM (inactive) each time. In addition, the GI50 in the assay with HOP-18 and with DMS-114 was > 100 µM (inactive) throughout.

On to `CCOC(=O)c1c(C(F)(F)F)oc2c1ccc1nc3nonc3nc12`, for which the GI50 in the assay with DLD-1 is 14.3 µM (inactive); in the assay on XF498, 17 µM (inactive); with DMS-273, 19.1 µM (inactive); with M19-MEL, 18.6 µM (inactive); with KM-20L2 it was 18.2 µM (inactive); with SNB-78 it was 14.7 µM (inactive). Besides, the GI50 is 19 µM (inactive) in the assay with RXF 631, 11 µM (inactive) with HOP-18 and 23.7 µM (inactive) in the assay on DMS-114.

`C(/C=C/N1CCCC1)=C\c1nc(N2CCCC2)c2ccccc2n1`: the GI50 with DLD-1 was 18.7 µM (inactive); in the assay on DMS-273, 18.4 µM (inactive); with M19-MEL, 17 µM (inactive); with KM-20L2 it was 24.9 µM (inactive); with SNB-78, 20.7 µM (inactive); in the assay on RXF 631, 7.73 µM (inactive). Moreover, the GI50 with HOP-18 is 16.5 µM (inactive); in the assay with DMS-114, 18.5 µM (inactive).

On to `COC(=O)NC1C(C)OC(OC2C/C=C(/C)C3C=CC4C(OC5CC(OC6CCC(OC7CC(O)C(OC8CCC(O)C(C)O8)C(C)O7)C(C)O6)C(OC(C)=O)C(C)O5)C(C)CC(C)C4C3(C)/C(O)=C3/C(=O)OC4(CC(C=O)=CC(O)C4/C=C\2C)C3=O)CC1(C)[N+](=O)[O-]` (stereo unspecified), for which the GI50 with DLD-1 was 2.45 µM (inactive); with XF498, 0.261 µM (active); with DMS-273 it was 1.27 µM (inactive); in the assay on M19-MEL, 0.367 µM (active); in the assay on KM-20L2 it was 1.29 µM (inactive); in the assay on SNB-78 it was 1.82 µM (inactive). Further, the GI50 is 0.603 µM (active) in the assay on RXF 631, 2.15 µM (inactive) in the assay on HOP-18 and 0.385 µM (active) in the assay on DMS-114.

Regarding `COc1ccc(C2(Cl)C(Cl)(C(F)(F)F)C2(Cl)C(F)(F)F)cc1` (stereo unspecified), the GI50 was 15.7 µM (inactive) in the assay with DLD-1; 12.9 µM (inactive) in the assay with XF498; 14.3 µM (inactive) in the assay on DMS-273; 13.6 µM (inactive) in the assay with M19-MEL; 15.6 µM (inactive) with KM-20L2; 14.7 µM (inactive) with SNB-78. For the same compound, the GI50 with RXF 631 was 15.2 µM (inactive); in the assay on HOP-18 it was 15.3 µM (inactive); in the assay on DMS-114 it was 12.5 µM (inactive).

On to `C/C(=N/O)c1sc(-c2nc(C)c(/C(C)=N\O)s2)nc1C`, for which the GI50 in the assay with DLD-1, in the assay with XF498, with DMS-273, in the assay on M19-MEL, in the assay on KM-20L2 and in the assay on SNB-78 was > 100 µM (inactive) in each case. The GI50 in the assay with RXF 631, in the assay on HOP-18 and in the assay with DMS-114 was > 100 µM (inactive) each time.
